According to patent publication US10005817B2, “Peptide pharmaceuticals” (EUMEDERIS PHARMACEUTICALS, INC., priority 2012, dated 2018):
Non-standard residues stand in square brackets, D forms with d. Residues, ends and D or L forms follow the SMILES beside them. *: point of attachment. βDGlcA(1-OC18H37) = CCCCCCCCCCCCCCCCCCO[C@@H]1O[C@H](C(=O)*)[C@@H](O)[C@H](O)[C@H]1O; GlcA(β-D,1-O-dodecyl) = CCCCCCCCCCCCO[C@@H]1O[C@H](C(=O)*)[C@@H](O)[C@H](O)[C@H]1O; GlcA(β1-O-octyl) = CCCCCCCCO[C@@H]1O[C@H](C(=O)*)[C@@H](O)[C@H](O)[C@H]1O; βGlcA(1-OMe) = CO[C@@H]1O[C@H](C(=O)*)[C@@H](O)[C@H](O)[C@H]1O; Dmt = Cc1cc(O)cc(C)c1C[C@H](N)C(=O)O; hArg = N=C(N)NCCCC[C@H](N)C(=O)O; Tic = O=C(O)[C@@H]1Cc2ccccc2CN1; Nle = CCCC[C@H](N)C(=O)O; Ac5c = NC1(C(=O)O)CCCC1; Aib = CC(C)(N)C(=O)O; NHBn = c1ccc(CN*)cc1

Columns and labels:
[1] = in water; cited from earlier work
delta2 opioid receptor = target: T1, delta2 opioid receptor (Mus musculus, UniProt P32300); assay: delta2 opioid receptor cellular assay (DOP), antagonist mode vs DPDPE, cAMP readout; assay type: cell-based
T1 construct: Cerep
Experimental: (§1) Compounds were weighed precisely in an amount of approximately 2 mg and assayed in standard cellular assays by the contract research organization Cerep, Inc. (Pullman, Wash.) as executed at their subsidiary, Cerep SA (Le Bois l'Eveque, France). The readout is the amount of cAMP generated in the cells treated with the test compounds, in either agonist or antagonist mode. The assays used were the mu opioid receptor cellular assay (MOP in agonist and antagonist mode), the delta2 opioid receptor cellular assay (DOP in agonist and antagonist mode) and the kappa opioid receptor cellular assay (KOP in agonist and antagonist mode). The assays used are described in Wang, J. B., et al. (1994) FEBS Lett 338: 217-222, Law, P. Y. and Loh, H. H. (1993) Mol Pharmacol 43: 684-693, and Avidor-Reiss, T., et al. (1995) FEBS Lett 361: 70-74. The stimulant for the cells in the DOR antagonist assay was 3×10E-8M DPDPE, a well-accepted DOR literature standard.

mu opioid receptor = target: T2, mu opioid receptor (Homo sapiens, UniProt P35372); assay: mu opioid receptor cellular assay (MOP), agonist mode, cAMP readout (Cerep); assay type: cell-based
T2 construct: Cerep
Experimental: as §1

PTH receptor (PTHR1) = target: T3, PTH receptor (PTHR1) (Homo sapiens, UniProt Q03431); assay: PTH1 cellular assay, cAMP, agonist mode (SaOS2 cells, Cerep); assay type: cell-based; details: for Emax: SAOS-2, read-out: Maximal response (% PTHrP)
T3 construct: Cerep SA
T3 sequence (Q03431 27-593): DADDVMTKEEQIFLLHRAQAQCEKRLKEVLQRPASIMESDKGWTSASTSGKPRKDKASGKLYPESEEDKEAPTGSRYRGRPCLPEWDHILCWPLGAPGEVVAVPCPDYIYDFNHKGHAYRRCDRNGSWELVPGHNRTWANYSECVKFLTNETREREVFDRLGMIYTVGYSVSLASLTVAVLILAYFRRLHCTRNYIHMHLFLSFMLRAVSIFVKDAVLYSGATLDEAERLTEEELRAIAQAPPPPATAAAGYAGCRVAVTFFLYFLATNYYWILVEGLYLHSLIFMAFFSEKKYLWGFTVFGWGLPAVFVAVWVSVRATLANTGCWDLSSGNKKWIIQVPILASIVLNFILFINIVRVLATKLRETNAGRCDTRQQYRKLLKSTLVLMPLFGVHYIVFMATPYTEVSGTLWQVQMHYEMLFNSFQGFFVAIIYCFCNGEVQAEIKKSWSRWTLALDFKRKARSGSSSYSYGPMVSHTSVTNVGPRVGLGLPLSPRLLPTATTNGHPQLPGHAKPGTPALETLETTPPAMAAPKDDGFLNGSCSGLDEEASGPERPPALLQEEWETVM
Experimental: Compounds were weighed precisely in an amount of approximately 1 mg and assayed in standard cellular assays (cerep SA). The readout is the amount of cAMP generated in the cells treated with the test compounds, in either agonist or antagonist mode.
Compounds were dissolved in water and diluted in assay buffer containing 1% bovine serum albumin.

T2 sequence (P35372 whole entry): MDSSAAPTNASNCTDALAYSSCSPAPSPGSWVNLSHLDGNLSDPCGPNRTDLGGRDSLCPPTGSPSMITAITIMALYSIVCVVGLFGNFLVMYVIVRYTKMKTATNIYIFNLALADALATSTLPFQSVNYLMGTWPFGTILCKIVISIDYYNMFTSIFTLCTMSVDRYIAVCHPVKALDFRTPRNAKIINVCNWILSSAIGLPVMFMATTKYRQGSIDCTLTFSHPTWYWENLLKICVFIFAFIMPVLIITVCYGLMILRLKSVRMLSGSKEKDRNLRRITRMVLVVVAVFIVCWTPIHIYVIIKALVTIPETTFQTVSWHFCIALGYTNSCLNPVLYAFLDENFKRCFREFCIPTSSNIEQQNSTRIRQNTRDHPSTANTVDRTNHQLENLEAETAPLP
T1 sequence (P32300 whole entry): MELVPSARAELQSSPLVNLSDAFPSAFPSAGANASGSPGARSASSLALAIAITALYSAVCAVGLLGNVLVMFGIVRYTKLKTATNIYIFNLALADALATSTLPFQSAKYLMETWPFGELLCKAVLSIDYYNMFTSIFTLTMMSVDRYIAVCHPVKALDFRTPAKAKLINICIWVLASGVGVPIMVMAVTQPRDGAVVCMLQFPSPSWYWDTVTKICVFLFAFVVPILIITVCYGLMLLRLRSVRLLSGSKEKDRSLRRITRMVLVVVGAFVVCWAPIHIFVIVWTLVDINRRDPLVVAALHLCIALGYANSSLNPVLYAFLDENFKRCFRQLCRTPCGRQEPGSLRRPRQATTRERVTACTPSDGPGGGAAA

Compound | Characterization (DOP) (delta2 opioid receptor) | Characterization (MOP) (mu opioid receptor) | EC50 (mu opioid receptor) [µM] | also measured
CCCCCCCCO[C@@H]1O[C@H](CO)[C@@H](O[C@H]2O[C@H](CO)[C@@H](O)[C@H](O)[C@H]2O)[C@H](O)[C@H]1O [Octyl maltoside] | – | – | – | CMC [1]: 19.5 mM
CCCCCCCCO[C@@H]1O[C@H](C(=O)NCCCC[C@H](NC(=O)[C@H](Cc2ccccc2)NC(=O)[C@@H]2Cc3ccccc3CN2C(=O)[C@@H](N)Cc2c(C)cc(O)cc2C)C(N)=O)[C@@H](O)[C@H](O)[C@H]1O [EU-A180, Dmt-Tic-Phe-Lys(C8-glucuronyl)-NH2] (H-[Dmt][Tic]FK(GlcA(β1-O-octyl))-NH2) | pure DOP antag | Pure MOP Ag; | 0.036 | –
CCCCCCCCCCCCCCO[C@@H]1O[C@H](CO)[C@@H](O[C@@H]2O[C@@H](CO)[C@H](O)[C@@H](O)[C@@H]2O)[C@H](O)[C@H]1O (stereo in doubt) [Tetradecyl maltoside] | – | – | – | CMC [1]: 0.01 mM
CO[C@@H]1O[C@H](C(=O)NCCCC[C@H](NC(=O)[C@H](Cc2ccccc2)NC(=O)[C@@H]2Cc3ccccc3CN2C(=O)[C@@H](N)Cc2c(C)cc(O)cc2C)C(=O)NC(C)(C)C(N)=O)[C@@H](O)[C@H](O)[C@H]1O [EU-A600, Dmt-Tic-Phe-Lys(C1-glucuronyl)-Aib-NH2] (H-[Dmt][Tic]FK(βGlcA(1-OMe))[Aib]-NH2; N-terminus assumed) | pure DOP antag | Pure MOP Ag; | 0.11 | –
CCCCCCCCCCCCO[C@@H]1O[C@H](C(=O)NCCCC[C@H](NC(=O)[C@H](CCC(N)=O)NC(=O)[C@@H](NC(=O)[C@H](Cc2c[nH]c3ccccc23)NC(=O)[C@H](CCCNC(=N)N)NC(=O)[C@H](C)NC(=O)[C@H](CCCCNC(=N)N)NC(=O)[C@H](CCC(N)=O)NC(=O)[C@H](Cc2c[nH]cn2)NC(=O)[C@H](CCCC)NC(=O)[C@H](CC(C)C)NC(=O)[C@H](CCC(N)=O)NC(=O)[C@@H](NC(=O)[C@H](CCC(=O)O)NC(=O)C(C)(C)NC(=O)[C@@H](NC(=O)C2(N)CCCC2)C(C)C)[C@@H](C)CC)[C@@H](C)CC)C(N)=O)[C@@H](O)[C@H](O)[C@H]1O [EU-204] (H-[Ac5c]V[Aib]EIQL[Nle]HQ[hArg]ARWIQK(GlcA(β-D,1-O-dodecyl))-NH2) | – | – | – | Characterization (PTH receptor (PTHR1)): agonist; EC50 (PTH receptor (PTHR1)): 0.02 µM; Emax (PTH receptor (PTHR1)): 135%
CCCCCCCCCCCCCCCCCCO[C@@H]1O[C@H](C(=O)NCCCC[C@H](NC(=O)C(C)(C)NC(=O)[C@H](CCC(N)=O)NC(=O)[C@@H](NC(=O)[C@H](Cc2c[nH]c3ccccc23)NC(=O)[C@H](CCCNC(=N)N)NC(=O)[C@H](C)NC(=O)[C@H](CCCCNC(=N)N)NC(=O)[C@H](CCC(N)=O)NC(=O)[C@H](Cc2c[nH]cn2)NC(=O)[C@H](CCCC)NC(=O)[C@H](CC(C)C)NC(=O)[C@H](CCC(N)=O)NC(=O)[C@@H](NC(=O)[C@H](CCC(=O)O)NC(=O)C(C)(C)NC(=O)[C@@H](NC(=O)C2(N)CCCC2)C(C)C)[C@@H](C)CC)[C@@H](C)CC)C(=O)NC(C)(C)C(N)=O)[C@@H](O)[C@H](O)[C@H]1O [EU-288, Ac5c1-VaL2-Aib3-Glu4-Ile5-Gln6-Leu7-Nle8-His9-Gln10-hArg11-Ala12-Arg13-Trp14-Ile15-Gln16-Aib17-Lys(N-epsilon-1′-octadecylbeta-D-glucuronyl)18-Aib19-NH2] (H-[Ac5c]V[Aib]EIQL[Nle]HQ[hArg]ARWIQ[Aib]K(βDGlcA(1-OC18H37))[Aib]-NH2) | – | – | – | Characterization (PTH receptor (PTHR1)): agonist; EC50 (PTH receptor (PTHR1)): < 0.001 µM; Emax (PTH receptor (PTHR1)): 130%
CCCCCCCCCCCCO[C@@H]1O[C@H](C(=O)NCCCC[C@H](NC(=O)[C@H](Cc2ccccc2)NC(=O)[C@@H]2Cc3ccccc3CN2C(=O)[C@@H](N)Cc2c(C)cc(O)cc2C)C(N)=O)[C@@H](O)[C@H](O)[C@H]1O [EU-A179, Dmt-Tic-Phe-Lys(C12-glucuronyl)-NH2] (H-[Dmt][Tic]FK(GlcA(β-D,1-O-dodecyl))-NH2) | pure DOP antag | Pure MOP Ag; | – | –
CO[C@@H]1O[C@H](C(=O)NCCCC[C@@H](NC(=O)[C@H](Cc2ccccc2)NC(=O)[C@@H]2Cc3ccccc3CN2C(=O)[C@@H](N)Cc2c(C)cc(O)cc2C)C(N)=O)[C@@H](O)[C@H](O)[C@H]1O [EU-A615, Dmt-Tic-Phe-D-Lys(C1-glucuronyl)-Aib-NH2] (H-[Dmt][Tic]F[dK](βGlcA(1-OMe))-NH2) | pure DOP antag | Pure MOP Ag; | – | –
CO[C@@H]1O[C@H](C(=O)NCCCC[C@H](NC(=O)[C@H](Cc2ccccc2)NC(=O)[C@@H]2Cc3ccccc3CN2C(=O)[C@@H](N)Cc2c(C)cc(O)cc2C)C(=O)NCc2ccccc2)[C@@H](O)[C@H](O)[C@H]1O [EU-A620, Dmt-Tic-Phe-Lys(C1-glucuronyl)-NHCH2Ph] (H-[Dmt][Tic]FK(βGlcA(1-OMe))-NHBn) | pure DOP antag | Pure MOP Ag; | 0.48 | –
CCCCCCCCCCCCO[C@@H]1O[C@H](C(=O)NCCCC[C@H](NC(=O)C(C)(C)NC(=O)[C@H](CCC(N)=O)NC(=O)[C@@H](NC(=O)[C@H](Cc2c[nH]c3ccccc23)NC(=O)[C@H](CCCNC(=N)N)NC(=O)[C@H](C)NC(=O)[C@H](CCCCNC(=N)N)NC(=O)[C@H](CCC(N)=O)NC(=O)[C@H](Cc2c[nH]cn2)NC(=O)[C@H](CCCC)NC(=O)[C@H](CC(C)C)NC(=O)[C@H](CCC(N)=O)NC(=O)[C@@H](NC(=O)[C@H](CCC(=O)O)NC(=O)C(C)(C)NC(=O)[C@@H](NC(=O)C2(N)CCCC2)C(C)C)[C@@H](C)CC)[C@@H](C)CC)C(N)=O)[C@@H](O)[C@H](O)[C@H]1O [EU-207] (H-[Ac5c]V[Aib]EIQL[Nle]HQ[hArg]ARWIQ[Aib]K(GlcA(β-D,1-O-dodecyl))-NH2; N-terminus assumed) | – | – | – | Characterization (PTH receptor (PTHR1)): agonist; Emax (PTH receptor (PTHR1)): 110%
CO[C@@H]1O[C@H](C(=O)NCCCC[C@@H](NC(=O)[C@H](Cc2ccccc2)NC(=O)[C@@H]2Cc3ccccc3CN2C(=O)[C@@H](N)Cc2c(C)cc(O)cc2C)C(=O)NCc2ccccc2)[C@@H](O)[C@H](O)[C@H]1O [EU-A639, Dmt-Tic-Phe-D-Lys(C1-glucuronyl)-NHCH2Ph] (H-[Dmt][Tic]F[dK](βGlcA(1-OMe))-NHBn; N-terminus assumed) | pure DOP antag | Pure MOP Ag; | 0.28 | –
CCCCCCCCCCCCO[C@@H]1O[C@H](C(=O)NCCCC[C@H](NC(=O)[C@H](Cc2ccccc2)NC(=O)[C@H](Cc2ccccc2)NC(=O)[C@@H]2Cc3ccccc3CN2C(=O)[C@@H](N)Cc2c(C)cc(O)cc2C)C(N)=O)[C@@H](O)[C@H](O)[C@H]1O [EU-A190, Dmt-Tic-Phe-Phe-Lys(C12-glucuronyl)-NH2] | pure DOP antag | Pure MOP Ag; | – | –
CO[C@@H]1O[C@H](C(=O)NCCCC[C@H](NC(=O)[C@H](Cc2ccccc2)NC(=O)[C@H](Cc2ccccc2)NC(=O)[C@@H]2Cc3ccccc3CN2C(=O)[C@@H](N)Cc2c(C)cc(O)cc2C)C(N)=O)[C@@H](O)[C@H](O)[C@H]1O [EU-A189, 2′,6′-dimethyl-L-tyrosyl-L-1,2,3,4-tetrahydroisoquinoline-3-carbonyl-L-phenylalanyl-L-phenylalanyl-Nε-(1′-methyl β-D-glucuronyl)-L-lysyl-amide] | pure DOP antag | Pure MOP Ag; | 0.041 | –
